Results on one molecule are retold here after US5229410A, “6-substituted-hexahydrobenz[cd]indoles” (Eli Lilly and Company, priority 1991, dated 1993).

Each structure is given as a SMILES string. pIC50: −log10 of the molar value.

This test addresses T1, serotonin 1A receptor (Rattus norvegicus, UniProt P19327).
T1 construct: from tissue; host or cells: cerebral cortex of male Sprague-Dawley rats (synaptosomal membranes)
T1 sequence (P19327 1-422): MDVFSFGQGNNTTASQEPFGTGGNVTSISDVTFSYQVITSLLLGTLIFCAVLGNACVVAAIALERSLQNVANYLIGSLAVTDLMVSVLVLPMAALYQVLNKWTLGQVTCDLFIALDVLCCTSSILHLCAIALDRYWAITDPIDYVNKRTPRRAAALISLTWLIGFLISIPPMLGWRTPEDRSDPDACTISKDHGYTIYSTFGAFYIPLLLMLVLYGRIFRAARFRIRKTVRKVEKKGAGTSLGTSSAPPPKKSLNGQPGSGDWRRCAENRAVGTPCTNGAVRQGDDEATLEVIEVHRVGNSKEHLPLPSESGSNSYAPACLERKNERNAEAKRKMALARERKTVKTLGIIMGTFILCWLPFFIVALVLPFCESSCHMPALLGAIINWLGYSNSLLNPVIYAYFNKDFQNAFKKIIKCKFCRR
Put plainly: serotonin 1A receptor binding (3H-8-OH-DPAT, rat cerebral cortex synaptosomal membranes). The settings on record: 0.4 nM 3H-8-OH-DPAT, pH 7.4, 37° C., 10 min, read-out: IC50 (concentration necessary to inhibit the binding of 3H-8-OH-DPAT by 50%). More on the design: species or system Male Sprague-Dawley rats. The procedure: The compound of Example 14 was evaluated for its ability to interact with serotonin 1A receptor using the following procedure which is generally set forth in Wong et al., J. Neural Transm., 71, 207-218 (1988). Male Sprague-Dawley rats (110-150 g) from Harlan Industries (Cumberland, Ill.) were fed a Purina Chow ad libitum for at least 3 days before being used in the studies. Rats were killed by decapitation. The brains were rapidly removed, and the cerebral cortices were dissected out at 4° C.
Brain tissues were homogenized in 0.32M sucrose. After centrifugation at 1000×g for 10 min and then at 17,000×g for 20 min, a crude synaptosomal fraction was sedimented. The pellet was suspended in 100 vol of 50 mM Tris-HCl, pH 7.4, incubated at 37° C. for 10 min, and centrifuged at 50,000×g for 10 min. The process was repeated and the final pellet was suspended in ice-chilled 50 mM Tris-HCl, pH 7.4. […]
Binding of (^3 H-8-OH-DPAT) was performed according to the previously described method [Wong et al., J. Neural Transm. […] Radioactivity was measured with a liquid scintillation spectrometer. […] Specific binding of ^3 H-8-OH-DPAT is defined as the difference of radioactivity bound in the absence and in the presence of 10 μM unlabeled 8-OH-DPAT. […]

In the case of `C#Cc1ccc2c3c1C[C@H](N(CCC)CCC)C[C@@H]3CN2` [Example 14, (2aS,4R)-6-ethynyl-4-(di-n-propylamino)-1,2,2a,3,4,5-hexahydrobenz[cd]indole], the pIC50 was 9.30.
